{"source": "patent EP1131101B1", "about": "“KHELLIN PREPARATION AND THE USE THEREOF FOR TOPICAL THERAPY” (priority 1998, dated 2000)", "origin": "cited, not measured here", "key": {"[1]": {"conditions": "animal experiments; UVA phototherapy with Khellin compared with photochemotherapy with 8-MOP"}, "Plaque-Psoriasis": {"tested_on": "Plaque-Psoriasis", "conditions": "oral 100 mg Khellin then sun exposure"}}}
{"smiles": "COc1c2occc2c(OC)c2c(=O)cc(C)oc12", "note": "[Khellin, 4,9-Dimethoxy-7-methyl-5H-furo[3,2-g][1] benzopyran-5-on]", "values": [{"measurement": "karzinogenes Risiko", "setting": "[1]", "value": "deutlich geringeres karzinogenes Risiko"}, {"measurement": "Photomutagenität", "setting": "Bakterien", "value": "nur eine geringe Photomutagenität"}, {"measurement": "auf die Behandlung ansprachen", "setting": "Plaque-Psoriasis; 10 patients with plaque psoriasis", "value": 80, "unit": "%"}, {"measurement": "für drei Jahre symptomfrei", "setting": "Plaque-Psoriasis; of the responding patients", "value": 6, "unit": "von 8"}, {"measurement": "Mutagenität", "setting": "Grünalgen", "value": "keine signifikante Mutagenität"}]}
